Measurements from patent US20130071328A1, “Propynoic Acid Carbamoyl Methyl-Amides and Pharmaceutical Compositions and Methods Based Thereon” (UNIVERSITY OF SOUTHERN CALIFORNIA, priority 2011, published 2013).
“Also recorded” adds a separate entry of the source.

Columns and labels:
[1] = test system: HT29 colon cancer cell line; assay: MTT cytotoxicity assay, HT29; type: cell-based; conditions: Homo sapiens, HT-29, 72 h exposure
Excerpt: (§1) The human breast cancer cell line MDA-MB-435 and the colon cancer cell line HT29 were purchased from the American Type Cell Culture (Manassas, Va.). Colon cancer cell lines HCT116 p53^+/+ and HCT116 p53^−/− were kindly provided by Dr. Bert Vogelstein (Johns Hopkins Medical Institutions, Baltimore, Md.). The human ovarian carcinoma cell line (HEY), naturally resistant to cisplatin (CDDP), was kindly provided by Dr. Louis Dubeau (USC Norris Cancer Center). The bladder cancer cell lines were kindly provided by Dr. Richard Cote (USC Keck School of Medicine). Cells were maintained as monolayer cultures in the appropriate media: RPMI-1640 (HT29, HCT116 p53^+/+, HCT116 p53^−/−, and HEY cell lines) or DMEM (MDA-MB-435 and UMUC3 cell lines) supplemented with 10% fetal bovine serum (FBS) (HyClone, Road Logan, Utah) at 37° C. in a humidified atmosphere of 5% CO2. To remove the adherent cells from the flask for subculture and counting, cells were washed with PBS without calcium or magnesium, incubated with a small volume of 1×trypsin-EDTA solution (Sigma-Aldrich, St. Louis, Mo.) for 5 min, resuspended with fresh culture medium, and centrifuged at 1200 rpm for 5 min. All experiments were performed using cells in exponential growth phase. Cells were routinely checked for Mycoplasma contamination using PlasmaTest kit (InvivoGen, San Diego, Calif.).
(§2) Cytotoxicity was assessed by MTT assay as described previously. 43 In brief, cells were seeded in 96-well microtiter plates and allowed to attach overnight. Cells were subsequently treated with continuous exposure to corresponding drugs for 72 h. At the end of treatments, an MTT solution (at a final concentration of 0.5 mg/mL) was added to each well, and cells were incubated for 4 h at 37° C. After removal of the supernatant, DMSO was added, and the absorbance was read at 570 nm. All assays were done in triplicate. The IC50 was then determined for each drug from a plot of log(drug concentration) versus percentage of cells killed.

[2] = test system: HCT116 p53^+/+ colon cancer cell line; assay: MTT cytotoxicity assay, HCT116 p53+/+; type: cell-based; conditions: Homo sapiens, HCT-116, 72 h exposure
Excerpt: as §1, §2

[3] = test system: HCT116 p53^−/− colon cancer cell line; assay: MTT cytotoxicity assay, HCT116 p53-/-; type: cell-based; conditions: Homo sapiens, HCT-116, 72 h exposure
Excerpt: as §1, §2

[4] = test system: HEY ovarian cancer cell line; assay: Cytotoxicity assay, HEY; type: cell-based; conditions: Homo sapiens; MTT, 72 h exposure (Table 2)
Excerpt: as §1, §2

[5] = test system: UMUC3 bladder cancer cell line; assay: MTT cytotoxicity assay, UMUC3; type: cell-based; conditions: Homo sapiens, 72 h exposure
Excerpt: as §1, §2

[6] = test system: 5637 bladder cancer cell line; assay: MTT cytotoxicity assay, 5637; type: cell-based, human; conditions: for IC50: Homo sapiens, 72 h exposure
Excerpt: as §1, §2

[7] = test system: doxorubicin-resistant NCI/ADR-RES ovarian cancer cell line; assay: Cytotoxicity assay, NCI/ADR-RES; type: cell-based; conditions: Homo sapiens, MTT, 72 h exposure (Table 2)
Experimental: as §2

MDA-MB-435 xenograft = assay: MDA-MB-435 mouse xenograft model; type: in vivo
Experimental: To investigate the in vivo efficacy of these compounds, we selected compound 2 and evaluated its anticancer activity in a nude mouse xenograft model using MDA-MB-435 cells. Animals were treated with daily intraperitoneal (i.p.) injections of DMSO in sesame oil (vehicle control) or compound 2 at 10 mg/kg for 9 days, followed by 20 mg/kg for 5 days and concluding with 40 mg/kg for 12 days. After 26 days of dosing, the drug treatment was discontinued. Mice were monitored daily for an additional 17 days, and tumors were measured twice per week. FIG. 4A summarizes the tumor volume (mean±SEM) of the treatment groups throughout the observation time.
Sixteen virgin female athymic nude (nu/nu) mice (Simonsen Laboratory Inc., Gilroy, Calif.) were used for in vivo efficacy testing. […]
Human breast cancer MDA-MB-435 cells in logarithmic phase growth from in vitro cell culture were inoculated subcutaneously on the rear flank of the mice (1.5×10^6 cells/mouse) under aseptic conditions. Tumor growth was assessed twice weekly by measuring tumor diameters with a Vernier caliper (length×width). Tumor weight was calculated according to the formula: TW (mg)=tumor volume (mm^3)=d^2×D/2, where d and D are the shortest and longest diameters, respectively. […]
Eight mice were assigned to each group and the results were expressed as the mean±SEM. […]

MDA-MB-435 cells [8] = assay: Apoptosis assay, annexin V/propidium iodide flow cytometry; type: cell-based, human; conditions: for induction of apoptosis: 24 and 48 hours
Experimental: To quantify drug-induced apoptosis, annexin V/propidium iodide staining was performed and analyzed by flow cytometry. MDA-MB-435 cells were treated with 10 μM compound 1, 2, or 4 for 24 and 48 h. After treatment, both floating and adherent cells were combined and subjected to annexin V/propidium iodide staining using an annexin V-FITC apoptosis detection kit (Oncogene Research Products, San Diego, Calif.) according to manufacturer's recommendations. Untreated control cells (48 h) were maintained in parallel to drugtreated groups. Double staining was used to distinguish between viable, early apoptotic, and necrotic or late apoptotic cells. The resulting fluorescence (FITC-A channel for green fluorescence and PE-A channel for red fluorescence) was measured by flow cytometry using a BD LSRII flow cytometer (BD Biosciences, San Jose, Calif.).

MDA-MB-435 cells [9] = assay: Mitochondrial superoxide production (MitoSOX Red); type: cell-based, human; conditions: IC50 or 3×IC50, 24 hours
Experimental: After drug treatments, a solution of 5 μM MitoSOX Red mitochondrial superoxide indicator (Invitrogen, Carlsbad, Calif.) was added, and cells were incubated for 10 min at 37° C. Cells were then washed three times with Hank's balanced salt solution (HBSS) to remove excess MitoSOX. After washing, cells were either observed under the fluorescence microscope or collected by trypsinization, washed twice with HBSS, and measured for superoxide production using a BD LSRII flow cytometer (BD Biosciences, San Jose, Calif., USA). Data were analyzed with the BD FACSDiva software package (BD Biosciences, San Jose, Calif., USA).

[10] = test system: MDA-MB-435 breast cancer cell line; assay: MTT cytotoxicity assay, MDA-MB-435; type: cell-based, human
Excerpt: as §1, §2

[11] = Pharmacokinetics study after i.p. administration; type: in vivo, mice; conditions: mouse, ip
Experimental: To assess the efficacy, tolerability, and pharmacokinetics of these novel compounds following i.p. administration, the pharmacokinetic profile of compounds 4 and 9 was evaluated (Table 3). Mice were treated with compounds 4 and 9 via i.p. injection and serial blood sampling was determined at indicated times after administration. The plasma concentration was determined using a validated liquid chromatography mass spectrometry (LC-MS) method where the lowest level of quantification was 1 ng/mL. One hour following i.p. administration of compounds 4 and 9, their concentrations in the blood were 344 and 6.2 ng/mL, respectively. […] The half-lives of compounds 4 and 9 via i.p. administration were determined to be approximately 3.5 and 9.3 hours, respectively, when a non-compartmental pharmacokinetics analysis was used. The favorable pharmacokinetics profile of compounds 4 and 9 is consistent with the ADMET predictions described previously.
Preliminary pharmacokinetics of compounds 4 and 9 were performed using 18 mice, each time point consisting of two mice. Mice were stratified to various doses given as an i.p. injection of compounds 4 and 9 (24 mg/kg). At the specified time points following drug administration, blood was collected with heparinized syringes. The samples were allowed to settle in 500 μL eppendorf vials and then centrifuged at 1500 rpm for 10 min. The plasma was removed, transferred into new eppendorf tube, and frozen at −80° C. until analysis.

MDA-MB-435 cells [12] = assay: Cell cycle analysis by propidium iodide flow cytometry; type: cell-based, human
Experimental: Cell cycle perturbations were analyzed by propidium iodide DNA staining. Exponentially growing MDA-MB-435 cells were treated with 5 μM compound 4 for 6, 12, and 24 h. At the end of treatment, cells were collected and washed with 1×PBS after a gentle centrifugation at 1500 rpm for 5 min. Cells were then thoroughly resuspended in 0.5 mL of PBS and fixed in 70% ethanol overnight at 4° C. Ethanol-fixed cells were centrifuged at 3000 rpm for 5 min and washed twice in PBS to remove residual ethanol. For cell cycle analysis, the pellets were resuspended in 1 mL of PBS containing 0.02 mg/mL of propidium iodide and 0.5 mg/mL of DNase-free RNase A and incubated at 37° C. for 30 min. Cell cycle profiles were obtained using a BD LSRII flow cytometer (BD Biosciences, San Jose, Calif.). Propidium iodide was excited using a 488 nm blue argon laser. Resulting fluorescence was measured using a PMT detector equipped with 550 nm long pass dichroic mirror and 575/26 bandpass filter. Data were analyzed with the ModFit LT software package (Verify Software House, Inc., Topsham, Me.).

panel of cancer cells = assay: MTT cytotoxicity of compound 4 across tested cell lines (FIG. 2B); type: cell-based; conditions: Homo sapiens, MTT assays
Experimental: as §2

C#CC(=O)N(c1cccc(C(F)(F)F)c1)C(C(=O)NC1CCCC1)c1cccc(OC)c1 (stereo not drawn) [Compound 2, N-[2-(Cyclopentylamino)-1-(3-methoxyphenyl)-2-oxoethyl]-N-[3-(trifluoromethyl)phenyl]Propynamide]
IC50 [1]: 7.2 ± 0.2 µM
IC50 [2]: > 10 µM
IC50 [3]: 8.8 ± 0.4 µM
IC50 [4]: 5.2 ± 3.4 µM
IC50 [5]: > 20 µM
IC50 [6]: 0.6 ± 0.4 µM
IC50 [7]: 0.2 ± 0.1 µM
tumor burden (tumor volume) (MDA-MB-435 xenograft; i.p. daily 10 mg/kg 9 days, 20 mg/kg 5 days, 40 mg/kg 12 days): significantly reduced tumor burden
average body weight after treatment (MDA-MB-435 xenograft; mean±SD, after treatment, control 28±2 g): 29 ± 2 g
induction of early apoptosis (MDA-MB-435 cells [8]; 10 μM, 24 hours): failed to induce early apoptosis
increase in early apoptotic cells (MDA-MB-435 cells [8]; 10 μM, 48 h): 8%
percentage of late apoptotic cells (MDA-MB-435 cells [8]; 10 μM, 48 hours): 37%
induction of apoptosis (MDA-MB-435 cells [8]): induce apoptosis
mitochondrial superoxide production, flow cytometry (MDA-MB-435 cells [9]): induce significant amounts of superoxide

C#CC(=O)N(c1ccc(-n2cnnn2)c(C)c1)C(C(=O)NC1CCCC1)c1ccccc1F (stereo not drawn) [Compound 4, N-[2-(Cyclopentylamino)-1-(2-fluorophenyl)-2-oxoethyl]-N-[3-methyl-4-(1H-tetraazol-1-yl)phenyl]Propynamide]
IC50 [1]: 1.8 ± 1.7 µM
IC50 [2]: 6.3 ± 1.8 µM
IC50 [3]: 5.5 ± 0.7 µM
IC50 [4]: 1.5 ± 0.8 µM
cytotoxic potency in MDA-MB-435 cells [10]: one of the most active compounds
IC50 [5]: 6.3 ± 1 µM
cytotoxic potency in 5637 cells [6]: remarkable potency
IC50 [6]: 0.7 ± 0.5 µM
IC50 [7]: 1 ± 0.3 µM
AUC ([11]; in vivo, 24 mg/kg): 520 ng·h/mL
Cmax ([11]; in vivo, 24 mg/kg): 344 ng/mL
Kel ([11]; in vivo, 24 mg/kg): 0.206 h⁻¹
Tmax ([11]; in vivo, 24 mg/kg): 1.0 h
half-life ([11]; in vivo, 24 mg/kg): ~3.5 h
t1/2 ([11]; in vivo, 24 mg/kg): 3.5 h
concentration at 1 h ([11]; plasma, mice, 24 mg/kg i.p., 1 hour, read-out: concentration in the blood one hour following i.p. administration): 344 ng/mL
cell cycle perturbation (MDA-MB-435 cells [12]; 5 μM, 6, 12 and 24 hours): induced both S- and G2/M-arrest; also recorded: block cell cycle progression at both S and G2/M phases
increase in number of cells retained in G2/M phase vs untreated control (MDA-MB-435 cells [12]; 5 μM, 24 hours): 7%
increase in number of cells retained in S phase vs untreated control (MDA-MB-435 cells [12]; 5 μM, 24 hours): 10%
percentage of late apoptotic cells (MDA-MB-435 cells [8]; 10 μM, 24 hours): 27%
percentage of early apoptotic cells (MDA-MB-435 cells [8]; 10 μM, 48 hours): 24%
percentage of late apoptotic cells (MDA-MB-435 cells [8]; 10 μM, 48 hours): 62%
induction of apoptosis (MDA-MB-435 cells [8]): induce apoptosis
mitochondrial superoxide production, flow cytometry (MDA-MB-435 cells [9]): induce significant amounts of superoxide
IC50 (panel of cancer cells): 1 to 2.5 µM
